Test results: PubChem BioAssay AID652282 (Vanderbilt Specialized Chemistry Center, 2013)
Activity calls are given as the source filed them. No rule for the calls is given here.

tested on: not listed separately; experiment: BMP4 signaling inhibitors, SAR follow-up, reporter cells (AID 652282); details: BMP4-induced signaling reporter cell assay; at 10 µM (top of the series)

| Compound | remaining activity % |
| --- | --- |
| c1ccc2c(-c3cnn4cc(-c5ccc(N6CCOCC6)cc5)cnc34)ccnc2c1 | -11 |
| c1cc(N2CCNCC2)ccc1-c1cnc2c(-c3cn[nH]c3)cnn2c1 | -11.7 |
| COc1ccc(-c2cnc3c(-c4ccnc5ccccc45)cnn3c2)cc1 | -16.3 |

tested on: BMP4-induced signaling reporter cell assay; experiment: as above; details: not given

| Compound | IC50 |
| --- | --- |
| COc1ccc(-c2cnc3c(-c4cccc5cccnc45)cnn3c2)cc1 | 6700 nM (inactive) |
| c1ccc2c(-c3cnn4cc(-c5ccc(N6CCNCC6)cc5)cnc34)csc2c1 | 225 nM |
| c1ccc2c(-c3cnn4cc(-c5ccc(N6CCOCC6)cc5)cnc34)csc2c1 | 274 nM |
| COc1ccc(-c2cnc3c(-c4ccnc5ncccc45)cnn3c2)cc1 | 38 nM |
| COc1ccc(-c2cnc3c(-c4cccc5ncccc45)cnn3c2)cc1 | 152 nM |
| c1cc(N2CCOCC2)ccc1-c1cnc2c(-c3cn[nH]c3)cnn2c1 | 172 nM |
| COc1ccc(-c2cnc3c(-c4ccnc5ccsc45)cnn3c2)cc1 | 4500 nM |
| Clc1cc(-c2cnn3cc(-c4ccc(N5CCOCC5)cc4)cnc23)ccn1 | 609 nM |
| Clc1cc(-c2cnn3cc(-c4ccc(N5CCNCC5)cc4)cnc23)ccn1 | 270 nM |
| COc1ccc(-c2cnc3c(-c4cncc5ccccc45)cnn3c2)cc1 | 4900 nM |
